System: HCV genotype 1b replicon cells (Huh-luc)
Test: HCV 1b replicon combination study (luciferase, MacSynergy II analysis)
Type: cell-based
Details: for Interaction: combination of Compound 1 and Compound 2, MacSynergy II
Experimental: HCV genotype 1b replicon cells (Huh-luc) were obtained from Reblikon (Mainz, Germany). The replicon in these cells is designated I389luc-ubi-neo/NS3-3′/ET and encodes a selectable resistance marker (neomycin phosphotransferase) as well as the firefly luciferase reporter gene. Huh-luc cells were maintained in Dulbecco's Modified Eagle's Medium (DMEM; GIBCO, Carlsbad, Calif.) supplemented with 10% fetal bovine serum (FBS; Hyclone, Logan, Utah) and 0.5 mg/mL of G-418 (GIBCO). Cells were passaged twice a week and maintained at subconfluent levels.
Replicon cells were seeded in 96-well plates at a density of 5×10^3 cells per well in 100 μL of DMEM culture medium, excluding G-418. Compounds 1 and 2 were serially diluted 1:3 in 100% DMSO (Sigma). These serial dilutions were added to the cells at a 1:200 dilution to achieve a final concentration of 0.5% DMSO in a total volume of 200 μL. Plates were incubated at 37° C. for 3 days, after which culture media were removed and cells were lysed and assayed for luciferase activity using a commercial luciferase assay (Promega, Madison, Wis.). HCV replication levels in drug-treated samples were expressed as a percentage of those in untreated controls (defined as 100%), and data were fit to the logistic dose response equation y=a/(1+(x/b)c) using XLFit4 software (IDBS, Emeryville, Calif.). EC50 values were calculated from the resulting equations as described previously (Delaney, W. E., et al., Antimicrobial Agents Chemotherapy, 45(6):1705-1713 (2001)). Replicon cells were seeded in 96-well plates at a density of 5×10^3 cells per well in 100 μL of culture medium. Compounds 1 and 2 were serially diluted in 100% DMSO as described above and added in a matrix format to 96-well plates, achieving a defined set of different drug concentrations and ratios in a final volume of 200 μL and a final DMSO concentration of 0.5%. […] Cells were incubated for three days and analyzed for luciferase expression as indicated above. […]
The calculated volumes of surface deviations are expressed in nM^2%. […]

| SMILES | Interaction | Antagonism Volume (in combination with Compound 1, 3 days, mean ± SD of two or three independent experiments in triplicate) [nM^2] |
| --- | --- | --- |
| Fc1ccccc1-c1nc2ccn(Cc3ccc(-c4ccc(C(F)(F)F)cc4C(F)(F)F)nn3)cc-2n1 [Compound 1, 5-({6-[2,4-bis(trifluoromethyl)phenyl]pyridazin-3-yl}methyl)-2-(2-fluorophenyl)-5H-imidazo[4,5-c]pyridine] | moderate synergistic interaction |  |
| CC(C)(C)NC(=O)N[C@H](C(=O)N1C[C@H]2[C@@H]([C@H]1C(=O)NC(CC1CCC1)C(=O)C(N)=O)C2(C)C)C(C)(C)C (stereo partly drawn) [Compound 2, (1R,2S,5S)-3-[N-(N-tert-Butylcarbamoyl)-3-methyl-L-valyl]-N-(2-cyclobutyl-1-oxamoylethyl)-6,6-dimethyl-3-azabicyclo[3.1.0]hexane-2-carboxamide] | Moderate synergy | −8.0 ± 13.6 |
